Data taken from patent publication US6737383B1, “Herbicidal oxadiazolidines” (priority 1999, dated 2004).

Legend:
purple nutsedge = assay: Test B pre/postemergence purple nutsedge; assay type: in vivo, Cyperus rotundus
Outline: (§1)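 Response is a visual 0-to-10 score relative to untreated plants, where 0 means no effect and 10 means complete control, taken twelve to sixteen days after application. Treatments went onto soil at planting and onto foliage of 1- to 4-leaf plants, using a surfactant-containing non-phytotoxic solvent.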

surinam grass = assay: Test B pre/postemergence surinam grass; assay type: in vivo, Brachiaria decumbens
Outline: as §1

giant foxtail = assay: Test B pre/postemergence giant foxtail; assay type: in vivo, Setaria faberii
Outline: as §1

corn = assay: Test B pre/postemergence corn; assay type: in vivo, Zea mays
Outline: as §1

blackgrass = assay: Test B pre/postemergence blackgrass; assay type: in vivo, Alopecurus myosuroides
Outline: as §1

rice = assay: Test B flood test rice; assay type: in vivo, Oryza sativa
Outline: (§2)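 Flood test on plants grown to the 2-leaf stage; treated plants kept in greenhouse twelve to sixteen days, then visually rated against controls on a 0 (no effect) to 10 (complete control) scale.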

velvetleaf = assay: Test B pre/postemergence velvetleaf; assay type: in vivo, Abutilon theophrasti
Outline: as §1

crabgrass = assay: Test B pre/postemergence crabgrass; assay type: in vivo, Digitaria sanguinalis
Outline: as §1

wheat = assay: Test B pre/postemergence wheat; assay type: in vivo, Triticum aestivum
Outline: as §1

duck salad = assay: Test B flood test duck salad; assay type: in vivo, Heteranthera limosa
Outline: as §2

morningglory = assay: Test B pre/postemergence morningglory; assay type: in vivo, Ipomoea hederacea
Outline: as §1

cocklebur = assay: Test B pre/postemergence cocklebur; assay type: in vivo, Xanthium strumarium
Outline: as §1

smallflower flatsedge = assay: Test B flood test smallflower flatsedge; assay type: in vivo, Cyperus difformis
Outline: as §2

rape = assay: Test B pre/postemergence rape; assay type: in vivo, Brassica napus
Outline: as §1

sugar beet = assay: Test B pre/postemergence sugar beet; assay type: in vivo, Beta vulgaris
Outline: as §1

pigweed = assay: Test B pre/postemergence pigweed; assay type: in vivo, Amaranthus retroflexus
Outline: as §1

[1] = Postemergence, Rate 125 g/ha, scale 0 to 10, 0 is no effect, 10 is complete control
[2] = Preemergence, Rate 62 g/ha, scale of 0 to 10 where 0 is no effect and 10 is complete control
[3] = Preemergence, Rate 250 g/ha, scale of 0 to 10 where 0 is no effect and 10 is complete control
[4] = Preemergence, Rate 500 g/ha, scale of 0 to 10 where 0 is no effect and 10 is complete control
[5] = Rate 62 g/ha, Postemergence, scale 0 to 10 (0 no effect, 10 complete control)
[6] = Rate 250 g/ha, Postemergence, scale of 0 to 10 where 0 is no effect and 10 is complete control
[7] = Rate 500 g/ha, Postemergence, scale 0 to 10, 0 no effect, 10 complete control
[8] = Rate 62 g/ha, headed Pre-emergence (flood test species), scale 0 to 10 (0 no effect, 10 complete control)
[9] = Rate 125 g/ha, Pre-emergence, flood test species, scale 0 to 10 where 0 is no effect and 10 is complete control
[10] = Rate 250 g/ha, Pre-emergence, flood-test species, scale 0 to 10, 0 is no effect, 10 is complete control
[11] = Rate 500 g/ha, Pre-emergence, flood test species, scale 0 to 10 (0 no effect, 10 complete control)

CC(C)N(C(=O)n1oc(=O)n(C2CC3CCC2C3)c1=O)c1ccccc1 (stereo not shown) [Compound 328]
Plant response rating, Nutsedge (purple nutsedge; [1]): 0 | Nutsedge plant response rating (purple nutsedge; [2]): 0 | Nutsedge plant response rating (0 to 10 scale) (purple nutsedge; Preemergence, Rate 125 g/ha): 0 | Nutsedge plant response rating (purple nutsedge; [3]): 0 | Nutsedge plant response rating (purple nutsedge; [4]): 0 | Nutsedge plant response rating (purple nutsedge; [5]): 0 | Plant response rating, Nutsedge (purple nutsedge; [6]): 0 | Plant response rating, Nutsedge (purple nutsedge; [7]): 0 | Plant response rating, B. signalgrass (surinam grass; [1]): 0 | B. signalgrass plant response rating (surinam grass; [2]): 0 | B. signalgrass plant response rating (0 to 10 scale, 0 is no effect, 10 is complete control) (surinam grass; Preemergence, Rate 125 g/ha): 0 | B. signalgrass plant response rating (surinam grass; [3]): 0 | B. signalgrass plant response rating (surinam grass; [4]): 5 | B. signalgrass plant response rating (surinam grass; [5]): 0 | Plant response rating, B. signalgrass (surinam grass; [6]): 0 | Plant response rating, B. signalgrass (surinam grass; [7]): 0 | Plant response rating, Giant foxtail (giant foxtail; [1]): 0 | Giant foxtail plant response rating (giant foxtail; [2]): 0 | Giant foxtail plant response rating (0 to 10 scale) (giant foxtail; Preemergence, Rate 125 g/ha): 5 | Giant foxtail plant response rating (giant foxtail; [3]): 8 | Giant foxtail plant response rating (giant foxtail; [4]): 9 | Giant foxtail plant response rating (giant foxtail; [5]): 0 | Plant response rating, Giant foxtail (giant foxtail; [6]): 0 | Plant response rating, Giant foxtail (giant foxtail; [7]): 1 | Plant response rating, Corn (corn; [1]): 0 | Corn plant response rating (corn; [2]): 0 | Corn plant response rating (0 to 10 scale) (corn; Preemergence, Rate 125 g/ha): 0 | Corn plant response rating (corn; [3]): 0 | Corn plant response rating (corn; [4]): 0 | Corn plant response rating (corn; [5]): 0 | Plant response rating, Corn (corn; [6]): 0 | Plant response rating, Corn (corn; [7]): 0 | Plant response rating, Blackgrass (blackgrass; [1]): 1 | Blackgrass plant response rating (blackgrass; [2]): 0 | Blackgrass plant response rating (0 to 10 scale) (blackgrass; Preemergence, Rate 125 g/ha): 0 | Blackgrass plant response rating (blackgrass; [3]): 4 | Blackgrass plant response rating (blackgrass; [4]): 7 | Blackgrass plant response rating (blackgrass; [5]): 0 | Plant response rating, Blackgrass (blackgrass; [6]): 5 | Plant response rating, Blackgrass (blackgrass; [7]): 5 | Rice plant response rating (rice; [8]): 0 | Rice plant response rating (rice; [9]): 0 | Rice plant response rating (rice; [10]): 0 | Rice plant response rating (rice; [11]): 7 | Plant response rating, Velvetleaf (velvetleaf; [1]): 0 | Velvetleaf plant response rating (velvetleaf; [2]): 0 | Velvetleaf plant response rating (0 to 10 scale) (velvetleaf; Preemergence, Rate 125 g/ha): 0 | Velvetleaf plant response rating (velvetleaf; [3]): 0 | Velvetleaf plant response rating (velvetleaf; [4]): 0 | Velvetleaf plant response rating (velvetleaf; [5]): 0 | Plant response rating, Velvetleaf (velvetleaf; [6]): 0 | Plant response rating, Velvetleaf (velvetleaf; [7]): 0 | Plant response rating, Crabgrass (crabgrass; [1]): 0 | Crabgrass plant response rating (crabgrass; [2]): 0 | Crabgrass plant response rating (0 to 10 scale) (crabgrass; Preemergence, Rate 125 g/ha): 0 | Crabgrass plant response rating (crabgrass; [3]): 3 | Crabgrass plant response rating (crabgrass; [4]): 5 | Crabgrass plant response rating (crabgrass; [5]): 0 | Plant response rating, Crabgrass (crabgrass; [6]): 0 | Plant response rating, Crabgrass (crabgrass; [7]): 2 | Plant response rating, Wheat (wheat; [1]): 0 | Wheat plant response rating (wheat; [2]): 0 | Wheat plant response rating (0 to 10 scale) (wheat; Preemergence, Rate 125 g/ha): 0 | Wheat plant response rating (wheat; [3]): 0 | Wheat plant response rating (wheat; [4]): 0 | Wheat plant response rating (wheat; [5]): 0 | Plant response rating, Wheat (wheat; [6]): 0 | Plant response rating, Wheat (wheat; [7]): 0 | Ducksalad plant response rating (duck salad; [8]): 0 | Ducksalad plant response rating (duck salad; [9]): 0 | Ducksalad plant response rating (duck salad; [10]): 0 | Ducksalad plant response rating (duck salad; [11]): 0 | Plant response rating, Morningglory (morningglory; [1]): 8 | Morningglory plant response rating (morningglory; [2]): 0 | Morningglory plant response rating (0 to 10 scale) (morningglory; Preemergence, Rate 125 g/ha): 0 | Morningglory plant response rating (morningglory; [3]): 0 | Morningglory plant response rating (morningglory; [4]): 4 | Morningglory plant response rating (morningglory; [5]): 7 | Plant response rating, Morningglory (morningglory; [6]): 10 | Plant response rating, Morningglory (morningglory; [7]): 10 | Plant response rating, Cocklebur (cocklebur; [1]): 0 | Cocklebur plant response rating (0 to 10 scale) (cocklebur; Preemergence, Rate 125 g/ha): 0 | Cocklebur plant response rating (cocklebur; [3]): 0 | Cocklebur plant response rating (cocklebur; [4]): 0 | Cocklebur plant response rating (cocklebur; [5]): 0 | Plant response rating, Cocklebur (cocklebur; [6]): 0 | Plant response rating, Cocklebur (cocklebur; [7]): 0 | S. Flatsedge plant response rating (smallflower flatsedge; [8]): 0 | S. Flatsedge plant response rating (smallflower flatsedge; [9]): 0 | S. Flatsedge plant response rating (smallflower flatsedge; [10]): 0 | S. Flatsedge plant response rating (smallflower flatsedge; [11]): 0 | Plant response rating, Rape (rape; [1]): 0 | Rape plant response rating (rape; [2]): 0 | Rape plant response rating (0 to 10 scale) (rape; Preemergence, Rate 125 g/ha): 0 | Rape plant response rating (rape; [3]): 0 | Rape plant response rating (rape; [4]): 0 | Rape plant response rating (rape; [5]): 0 | Plant response rating, Rape (rape; [6]): 0 | Plant response rating, Rape (rape; [7]): 0 | Plant response rating, Sugarbeets (sugar beet; [1]): 0 | Sugarbeets plant response rating (sugar beet; [2]): 0 | Sugarbeets plant response rating (0 to 10 scale) (sugar beet; Preemergence, Rate 125 g/ha): 0 | Sugarbeets plant response rating (sugar beet; [3]): 0 | Sugarbeets plant response rating (sugar beet; [4]): 0 | Sugarbeets plant response rating (sugar beet; [5]): 0 | Plant response rating, Sugarbeets (sugar beet; [6]): 0 | Plant response rating, Sugarbeets (sugar beet; [7]): 0 | Plant response rating, Redroot pigweed (pigweed; [1]): 3 | Redroot pigweed plant response rating (pigweed; [2]): 0 | Redroot pigweed plant response rating (0 to 10 scale) (pigweed; Preemergence, Rate 125 g/ha): 0 | Redroot pigweed plant response rating (pigweed; [3]): 0 | Redroot pigweed plant response rating (pigweed; [4]): 4 | Redroot pigweed plant response rating (pigweed; [5]): 2 | Plant response rating, Redroot pigweed (pigweed; [6]): 3 | Plant response rating, Redroot pigweed (pigweed; [7]): 5
